# Laboratory results as given in US12146874B2, “Microtentacle imaging in patient tumor samples” (University of Maryland, Baltimore, priority 2014, dated 2024).
# Assays:
# [1] = tested on: MDA-436 cells; experiment: Automated McTN analysis by confocal microscopy; assay type: cell-based; conditions: at least 10 random cells
# Source text: FIG. 24. Automated McTN analysis. […] A gradient vector flow snake algorithm was used to define the cell edges and a local curvature maxima effectively identified McTN ends (yellow diamonds). […] This automated cell shape analysis will also enable calculations of average McTN length, curvature, etc. that will yield more multi-dimensional data for McTN studies.
# [2] = tested on: patient-derived cells; experiment: McTN and stem cell responses of patient-derived cells to drugs (Example 4); assay type: cell-based, human; conditions: concentration listed in Table 2, 30 minutes, vs vehicle 0.1% DMSO
# Protocol: Patient-derived cells are treated with either vehicle (0.1% DMSO) or each of the drugs in Table 2 at the indicated concentration for 30 minutes and then analyzed for McTN incidence.
# [3] = tested on: fresh patient tumor cells and tumorgrafts; experiment: McTN drug response of fresh patient samples and tumorgrafts in the microfluidic device (Aim 3b); conditions: concentration listed in Table 4, 60 minutes, media exchange in microfluidic channels
# Protocol: An automated microscope stage will collect images from each channel every 5 minutes across the one hour drug treatment.
# Strategy and Analysis: The device prioritized from subaim 2a will be used to analyze fresh patient samples as well as the resulting tumorgrafts from 40 patients during the three years of the project. McTN images collected from each cell sample will be analyzed with a custom MatLab algorithm developed for this assay that can automatically identify McTNs but also score metrics that were previously not possible to measure, such as the average number of McTNs per cell (FIG. 12). […] Drugs will be added by media exchange across the six microfluidic channels at the concentrations listed in Table 4 for 60 minutes, which each affect McTNs in 1 hr.
# [4] = tested on: nonmetastatic SkBr3 cells; experiment: McTN scoring in detached SkBr3 cells, confocal microscopy for tubulin localization; assay type: cell-based, Human; conditions: Jas 500 nM, Taxol 1.2 μM, McTNs scored blindly, 3 expts
# Source text: FIG. 4. Targeting cell division can increase McTNs. […] (Bars=mean+S.D from 3 expts. with McTNs scored blindly).
# Genetic alterations and chemotherapies that stabilize tubulin can increase McTNs. Actin-disrupting drugs, such as jasplakinolide (Jas) are currently being developed as therapies to reduce tumor cell division and migration (Takeuchi H, Ara G, Sausville E A, Teicher B (1998). Jasplakinolide: interaction with radiation and hyperthermia in human prostate carcinoma and Lewis lung carcinoma. Cancer chemotherapy and pharmacology 42: 491-496). […] Dissemination and growth of cancer cells in metastatic sites. […] We have published that genetic alterations which promote McTNs (FIG. 2B) increase CTC lung retention in living mice (Balzer E M, Whipple R A, Thompson K, Boggs A E, Slovic J, Cho E H et al (2010). c-Src differentially regulates the functions of microtentacles and invadopodia. Oncogene 29: 6402-6408; Matrone M A, Whipple R A, Thompson K, Cho E H, Vitolo M I, Balzer E M et al (2010). Metastatic breast tumors express increased tau, which promotes microtentacle formation and the reattachment of detached breast tumor cells. Oncogene 29: 3217-3227).
Structure (SMILES),Predicted stemness & McTN effect [2],Predicted stemness & McTN effect [3],also measured
COc1cc2c(c(OC)c1OC)-c1ccc(OC)c(=O)cc1[C@@H](NC(C)=O)CC2 [Colchicine],Decrease,Decrease,average number of McTNs per cell ([1]; colchicine 50 μM vs vehicle 0.1% DMSO): significantly reduces the average number of McTNs per cell
C=C1C(=O)O[C@@H]2/C=C(\C)CC/C=C(\C)CC[C@@H]12 [Costunolide],Decrease,,
COc1cc(/C=C/C(=O)CC(=O)/C=C/c2ccc(O)c(OC)c2)ccc1O [Curcumin],,Decrease,
CC(=O)O[C@@]12CO[C@@H]1C[C@H](O)[C@@]1(C)C(=O)[C@H](O)C3=C(C)[C@@H](OC(=O)[C@H](O)[C@@H](NC(=O)OC(C)(C)C)c4ccccc4)C[C@@](O)([C@@H](OC(=O)c4ccccc4)[C@H]21)C3(C)C [Docetaxel],Increase,,
O=S(=O)(c1cccc2cnccc12)N1CCCNCC1 [Fasudil],Increase,,
C/C(=C\c1csc(C)n1)[C@@H]1C[C@@H]2O[C@]2(C)CCC[C@H](C)[C@H](O)[C@@H](C)C(=O)C(C)(C)[C@@H](O)CC(=O)N1 [Ixabepilone],Increase,Increase,
"C/C1=C\[C@H](C)C[C@H](C)OC(=O)C[C@H](c2ccc(O)cc2)NC(=O)[C@@H](Cc2c(Br)[nH]c3ccccc23)N(C)C(=O)[C@H](C)NC(=O)[C@@H](C)C1 [Jazplakinolide, Jasplakinolide]",Decrease,,levels of McTNs [4]: strongly promote McTNs; levels of McTNs ([4]; listed as Jas): increases levels of McTNs dramatically
O=S(=O)(c1cccc2c(I)cccc12)N1CCCNCC1 [ML-7],Decrease,,
CC(=O)O[C@H]1C(=O)[C@@]2(C)[C@H]([C@H](OC(=O)c3ccccc3)[C@]3(O)C[C@H](OC(=O)[C@H](O)[C@@H](NC(=O)c4ccccc4)c4ccccc4)C(C)=C1C3(C)C)[C@]1(OC(C)=O)CO[C@@H]1C[C@@H]2O [Paclitaxel],Increase,Increase,"levels of McTNs [4]: strongly promote McTNs; levels of McTNs ([4]; listed as Paclitaxel-Taxol): increases levels of McTNs dramatically; average number of McTNs per cell ([1]; paclitaxel 1 μM vs vehicle 0.1% DMSO): increases McTNs, but this does not reach significance"
CN(C)S(=O)(=O)c1ccc2c(c1)/C(=C/c1cc3c([nH]1)CCCC3)C(=O)N2 [SU6656],Increase,,
CC[C@]1(O)C[C@@H]2CN(CCc3c([nH]c4ccccc34)[C@@](C(=O)OC)(c3cc4c(cc3OC)N(C)[C@H]3[C@@](O)(C(=O)OC)[C@H](OC(C)=O)[C@]5(CC)C=CCN6CC[C@]43[C@@H]65)C2)C1 [Vinblastine],Decrease,Decrease,
C[C@@H](N)[C@H]1CC[C@H](C(=O)Nc2ccncc2)CC1 [Y-27632],Increase,,
